Measured values reported in article PMC7407242, “Deamidated Human Triosephosphate Isomerase is a Promising Druggable Target” (Biomolecules, 2020).

Columns and labels:
[1] = molecular target: T1, HsTIM (human triosephosphate isomerase) (Homo sapiens, UniProt P60174); test: TIM activity in lysate of treated E. coli tim-deletion cells; type: cell-based; set-up: gene TPI1; full-length; tagged plasmid in E. coli tim-deletion BL21-Gold(DE3) cells for omeprazole; homodimer, 5 Cys per subunit; conditions: residual activity; 0.75 mM omeprazole, 22 h at 37 °C, M9 medium; covalent
From the text: TIM activity in lysate of treated E. coli tim-deletion cells on HsTIM (human triosephosphate isomerase)

[2] = molecular target: T2, HsTIM (human triosephosphate isomerase) (Homo sapiens, UniProt P60174, N16D); test: residual activity after preincubation, coupled alpha-GPDH / NADH assay at […] nm; type: biochemical; conditions: read-out: activity dropped to 50%
T2 construct: gene TPI1; full-length; recombinant E. coli BL21-CodonPlus(DE3)-RIL, vector pET3a-HisTEV, N-terminal His6-TEV tag cut by TEVp for purified assays; tagged plasmid in E. coli tim-deletion BL21-Gold(DE3) cells for omeprazole; homodimer, 5 Cys per subunit

[3] = molecular target: T1, HsTIM (human triosephosphate isomerase); test: Ellman free thiol count after derivatization; type: binding; set-up: gene TPI1; full-length; recombinant E. coli BL21-CodonPlus(DE3)-RIL, vector pET3a-HisTEV, N-terminal His6-TEV tag cut by TEVp for purified assays; tagged plasmid in E. coli tim-deletion BL21-Gold(DE3) cells for omeprazole; homodimer, 5 Cys per subunit; conditions: covalent; 250 µM compound, 2 h at 37 °C, enzyme 0.5 mg/mL, TE buffer pH 7.4
From the text: Ellman free thiol count after derivatization on HsTIM (human triosephosphate isomerase)

T1 sequence (P60174 2-249): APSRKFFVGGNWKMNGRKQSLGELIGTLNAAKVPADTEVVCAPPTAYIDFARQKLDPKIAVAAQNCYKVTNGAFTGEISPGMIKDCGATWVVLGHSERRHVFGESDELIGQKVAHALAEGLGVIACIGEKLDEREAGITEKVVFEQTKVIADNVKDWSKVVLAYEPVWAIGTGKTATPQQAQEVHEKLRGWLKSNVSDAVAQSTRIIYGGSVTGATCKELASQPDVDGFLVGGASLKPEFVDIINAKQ
T2 sequence (P60174 2-249 N16D): as the sequence (P60174 2-249) above, with N15D counted along it

| SMILES | Enzyme Activity (%) [1] [%] | IC50 [2] [µM] | Derivatized Cys/Subunit [3] [Cys/subunit] |
| --- | --- | --- | --- |
| COc1ccc2[nH]c([S+]([O-])Cc3ncc(C)c(OC)c3C)nc2c1 (stereo not drawn) [omeprazole] | 96 ± 4 |  |  |
| O=C(O)c1cc(SSc2ccc([N+](=O)[O-])c(C(=O)O)c2)ccc1[N+](=O)[O-] [DTNB, 5,5′-dithiobis-(2-nitrobenzoic acid)] |  | 3 |  |
| CS(=O)(=O)SCCS(=O)(=O)O [MTSES, sodium 2-[(methylsulfonyl)sulfanyl] ethanesulfonate] |  | 6 | 1 |
| CSS(C)(=O)=O [MMTS] |  | 7.5 | 1 |
